What is called inhibition is the percentage by which the read-out fell short of the control.

T1 sequence (P30518 whole entry): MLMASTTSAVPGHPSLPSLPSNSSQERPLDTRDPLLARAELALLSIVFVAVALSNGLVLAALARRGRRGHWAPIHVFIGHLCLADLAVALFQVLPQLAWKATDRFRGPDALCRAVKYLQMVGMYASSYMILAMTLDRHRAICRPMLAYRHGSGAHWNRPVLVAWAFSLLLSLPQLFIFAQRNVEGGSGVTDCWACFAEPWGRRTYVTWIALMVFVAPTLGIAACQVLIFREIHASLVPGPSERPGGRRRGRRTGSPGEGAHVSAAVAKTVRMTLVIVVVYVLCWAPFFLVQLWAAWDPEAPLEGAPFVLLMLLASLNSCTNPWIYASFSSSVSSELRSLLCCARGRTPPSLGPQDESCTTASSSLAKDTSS

The assay concerns the target T1, human vasopressin V2 receptor subtype (Homo sapiens, UniProt P30518).
T1 construct: host or cells: CHO cells (pZeoSV vector)
Nature of the assay: Vasopressin binding in Chinese Hamster Ovary cell membranes expressing human vasopressin V2 subtype receptors. The note with it: 100 nM, CHO cell membranes, [3H]arginine vasopressin, values without parentheses. Summed up: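 Radioligand displacement on membranes from CHO cells stably expressing human V2 receptor, 25 to 50 μg protein/well, in 50 mM Tris-HCl pH 7.4 with MgCl2, BSA and protease inhibitors. [^3H]arginine vasopressin (8 nM working solution) incubated 60 min at room temperature; bound label measured by filtration and scintillation counting.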
On to `COc1ccccc1-c1ccc(C(=O)N2Cc3ccc(C(=O)N[C@@H]4CN5CCC4CC5)n3Cc3ccccc32)cc1C` [Example 295, N-[(3S)-1-Azabicyclo[2.2.2]oct-3-yl]-10-[(2′-methoxy-2-methyl[1,1′-biphenyl]-4-yl)carbonyl]-10,11-dihydro-5H-pyrrolo[2,1-c][1,4]benzodiazepine-3-carboxamide], for which the inhibition at 0.1 µM turned out to be 22%.
On to `COc1ccccc1-c1ccc(C(=O)N2Cc3ccc(C(=O)N4CCN(C)CC4)n3Cc3ccccc32)cc1C` [Example 49, {10-[(2′-Methoxy-2-methyl[1,1′-biphenyl]-4-yl)carbonyl]-10,11-dihydro-5H-pyrrolo[2,1-c][1,4]benzodiazepin-3-yl}(4-methyl-1-piperazinyl)methanone], for which the inhibition at 0.1 µM stood at 27%.
Then `COc1cc(C(=O)N2Cc3ccc(C(=O)NCCN4CCCCC4)n3Cc3ccccc32)ccc1-n1c(C)ccc1C` [Example 314, 10-[4-(2,5-Dimethyl-1H-pyrrol-1-yl)-3-methoxybenzoyl]-N-[2-(1-piperidinyl)ethyl]-10,11-dihydro-5H-pyrrolo[2,1-c][1,4]benzodiazepine-3-carboxamide], with 7%; and `COc1cc(C(=O)N2Cc3ccc(C(=O)N4CCC(N5CCCC5)CC4)n3Cc3ccccc32)ccc1-n1c(C)ccc1C` [Example 313, {10-[4-(2,5-Dimethyl-1H-pyrrol-1-yl)-3-methoxybenzoyl]-10,11-dihydro-5H-pyrrolo[2,1-c][1,4]benzodiazepin-3-yl}[4-(1-pyrrolidinyl)-1-piperidinyl]methanone], with 2%.
Regarding `COc1cccc(-c2ccc(C(=O)N3Cc4ccc(C(=O)N5CCN(CCCN(C)C)CC5)n4Cc4ccccc43)cc2C)c1` [Example 248, {4-[3-(Dimethylamino)propyl]-1-piperazinyl}{10-[(3′-methoxy-2-methyl[1,1′-biphenyl]-4-yl)carbonyl]-10,11-dihydro-5H-pyrrolo[2,1-c][1,4]benzodiazepin-3-yl}methanone], the inhibition at 0.1 µM turned out to be 7%.
Then `Cc1ccccc1-c1ccc(C(=O)N2Cc3ccc(C(=O)N4CCCN(C)CC4)n3Cc3ccccc32)cc1` [Example 65, {10-[(2′-Methyl[1,1′-biphenyl]-4-yl)carbonyl]-10,11-dihydro-5H-pyrrolo[2,1-c][1,4]benzodiazepin-3-yl}(4-methyl-1,4-diazepan-1-yl)methanone], with 6%; and `COc1cc(C(=O)N2Cc3ccc(C(=O)NCCCn4ccnc4)n3Cc3ccccc32)ccc1-n1c(C)ccc1C` [Example 312, 10-[4-(2,5-Dimethyl-1H-pyrrol-1-yl)-3-methoxybenzoyl]-N-[3-(1H-imidazol-1-yl)propyl]-10,11-dihydro-5H-pyrrolo[2,1-c][1,4]benzodiazepine-3-carboxamide], with 3%; and `COc1ccccc1-c1ccc(C(=O)N2Cc3ccc(C(=O)N4CCCN(C)CC4)n3Cc3ccccc32)cc1C` [Example 62, {10-[(2′-Methoxy-2-methyl[1,1′-biphenyl]-4-yl)carbonyl]-10,11-dihydro-5H-pyrrolo[2,1-c][1,4]benzodiazepin-3-yl}(4-methyl-1,4-diazepan-1-yl)methanone], with 27%.
`Cc1ccccc1-c1ccc(C(=O)N2Cc3ccc(C(=O)N4CCN(CCCN(C)C)CC4)n3Cc3ccccc32)cc1` [Example 249, {4-[3-(Dimethylamino)propyl]-1-piperazinyl}{10-[(2′-methyl[1,1′-biphenyl]-4-yl)carbonyl]-10,11-dihydro-5H-pyrrolo[2,1-c][1,4]benzodiazepin-3-yl}methanone]: the inhibition at 0.1 µM was determined as 9%.
For the compound `Cc1ccccc1-c1ccc(C(=O)N2Cc3ccc(C(=O)N4CCN(C)CC4)n3Cc3ccccc32)cc1C` [Example 50, {10-[(2,2′-Dimethyl[1,1′-biphenyl]-4-yl)carbonyl]-10,11-dihydro-5H-pyrrolo[2,1-c][1,4]benzodiazepin-3-yl}(4-methyl-1-piperazinyl)methanone], the inhibition at 0.1 µM is 15%.

Source of the values: patent US7109193B2, “Tricyclic diazepines tocolytic oxytocin receptor antagonists” (Wyeth, priority 2001, dated 2006).
